Data as given in patent publication US20080009418A1, “Selective Inhibitors” (Alchemia LTD., priority 2004, published 2008).

Experiments:
[1] = target: T1, Human δ-opioid (DOP) (Homo sapiens, UniProt P41143); test: Radioligand binding, human δ-opioid (DOP) membranes, FlashPlate, [3H]-Bremazocine; details: compound at 10 μM; [3H]-Bremazocine
T1 construct: purchased Perkin Elmer Biosignal
Outline: (§1)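 Cloned human receptor membranes were coated onto FlashPlate wells and incubated with radioligand and compound (added from a 0.5 mM DMSO daughter plate) for 1 hour at room temperature in the dark. Scintillation counting gave percent inhibition, with DMSO defining total and reference ligand defining non-specific binding.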

[2] = target: T2, Human κ-Opioid (KOP) (Homo sapiens, UniProt P41145); test: Radioligand binding, human κ-opioid (KOP) membranes, filtration, [3H]-Diprenorphine; details: compound at 10 μM; [3H]-Diprenorphine
T2 construct: purchased Perkin Elmer Biosignal
Outline: (§2)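 Percent inhibition of radioligand binding measured on recombinant human membranes: NK1 with [125I]-Substance P, KOP with [3H]-Diprenorphine. Incubation 1 h at room temperature, then harvest onto 0.3% PEI-soaked filters, cold Tris-HCl pH 7.4 washes and scintillation counting; non-specific binding from reference ligand wells.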

[3] = target: T3, Human Melanocortin (MC3) (Homo sapiens, UniProt P41968); test: Radioligand binding, human melanocortin MC3 membranes, FlashPlate, [125I]-NDP-αMSH; details: compound at 10 μM; [125I]-NDP-αMSH
T3 construct: purchased Perkin Elmer Biosignal
Outline: as §1

[4] = target: T4, Human Melanocortin (MC4) (Homo sapiens, UniProt P32245); test: Radioligand binding, human melanocortin MC4 membranes, FlashPlate, [125I]-NDP-αMSH; details: compound at 10 μM; [125I]-NDP-αMSH
T4 construct: purchased Perkin Elmer Biosignal
Outline: as §1

[5] = target: T5, Human melanocortin (MC5) (Homo sapiens, UniProt P33032); test: Radioligand binding, human melanocortin MC5 membranes, FlashPlate, [125I]-NDP-αMSH; details: compound at 10 μM; [125I]-NDP-αMSH
T5 construct: purchased Perkin Elmer Biosignal
Outline: as §1

[6] = target: T6, Human melanin-concentrating hormone (MCH1) (Homo sapiens, UniProt Q99705); test: Radioligand binding, human melanin-concentrating hormone MCH1 membranes, FlashPlate, [125I]-S36057; details: compound at 10 μM; [125I]-S36057
T6 construct: purchased Perkin Elmer Biosignal
Outline: as §1

[7] = target: T7, Human μ-opioid (MOP) (Homo sapiens, UniProt P35372); test: Radioligand binding, human μ-opioid (MOP) membranes, FlashPlate, [3H]-Naloxone; details: compound at 10 μM; [3H]-Naloxone
T7 construct: purchased Perkin Elmer Biosignal
Outline: as §1

[8] = target: T8, Human neurokinin (NK1) (Homo sapiens, UniProt P25103); test: Radioligand binding, human neurokinin NK1 membranes, filtration, [125I]-Substance P; details: compound at 10 μM; [125I]-Substance P
T8 construct: purchased Perkin Elmer Biosignal
Outline: as §2

[9] = target: T9, Human neuropeptide Y (NPY-Y1) (Homo sapiens, UniProt P25929); test: Radioligand binding, human neuropeptide Y NPY-Y1 membranes, FlashPlate, [125I]-PYY; details: compound at 10 μM; [125I]-PYY
T9 construct: purchased Perkin Elmer Biosignal
T9 sequence (P25929 1-384): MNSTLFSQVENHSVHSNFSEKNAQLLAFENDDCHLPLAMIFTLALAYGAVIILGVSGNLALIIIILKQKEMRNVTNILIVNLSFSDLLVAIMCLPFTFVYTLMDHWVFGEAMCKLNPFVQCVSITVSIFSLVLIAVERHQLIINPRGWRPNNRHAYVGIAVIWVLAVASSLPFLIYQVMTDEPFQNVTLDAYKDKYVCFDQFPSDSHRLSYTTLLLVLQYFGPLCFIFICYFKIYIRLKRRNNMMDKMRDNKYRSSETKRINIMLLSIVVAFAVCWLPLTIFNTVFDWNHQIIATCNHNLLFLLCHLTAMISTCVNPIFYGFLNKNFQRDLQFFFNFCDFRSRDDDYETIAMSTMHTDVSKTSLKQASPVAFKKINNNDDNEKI
Outline: as §1

[10] = target: T10, Human opioid (ORL1) (Homo sapiens, UniProt P41146); test: Radioligand binding, human opioid ORL1 membranes, FlashPlate, [125I]-Nociceptin; details: compound at 10 μM; [125I]-Nociceptin
T10 construct: purchased Perkin Elmer Biosignal
Outline: as §1

[11] = target: T11, Mouse urotensin (mUR2) (Mus musculus, UniProt Q8VIH9); test: Radioligand binding, mouse urotensin mUR2 membranes, FlashPlate, [125I]-Urotensin II; details: compound at 10 μM; [125I]-Urotensin II
T11 construct: purchased Perkin Elmer Biosignal
T11 sequence (Q8VIH9 1-385): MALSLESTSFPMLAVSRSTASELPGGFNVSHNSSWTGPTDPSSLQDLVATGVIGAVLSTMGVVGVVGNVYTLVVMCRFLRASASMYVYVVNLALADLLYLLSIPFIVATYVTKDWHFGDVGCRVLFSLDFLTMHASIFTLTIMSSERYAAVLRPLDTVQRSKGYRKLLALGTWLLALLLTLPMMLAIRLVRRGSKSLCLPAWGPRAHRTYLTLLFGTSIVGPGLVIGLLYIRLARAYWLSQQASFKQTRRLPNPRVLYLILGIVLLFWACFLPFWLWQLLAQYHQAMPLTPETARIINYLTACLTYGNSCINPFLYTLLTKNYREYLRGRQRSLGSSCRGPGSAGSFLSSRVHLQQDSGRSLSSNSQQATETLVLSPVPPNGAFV
Outline: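 Cloned mouse urotensin (mUR2) receptor membranes from Perkin Elmer Biosignal were immobilized in FlashPlate microplates using a proprietary coating. Each well got 19.5 μl buffer, then 0.5 μl of DMSO, reference ligand, or compound. Adding 5 μl of [125I]-Urotensin II, diluted to 5× final concentration in binding buffer, started binding. Plates were sealed with TopSeal-A and incubated 1 hour at room temperature in the dark. Wells were counted for 30 seconds each on a TopCount after a 60-second delay, and percentage inhibition was calculated.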

T5 sequence (P33032 whole entry): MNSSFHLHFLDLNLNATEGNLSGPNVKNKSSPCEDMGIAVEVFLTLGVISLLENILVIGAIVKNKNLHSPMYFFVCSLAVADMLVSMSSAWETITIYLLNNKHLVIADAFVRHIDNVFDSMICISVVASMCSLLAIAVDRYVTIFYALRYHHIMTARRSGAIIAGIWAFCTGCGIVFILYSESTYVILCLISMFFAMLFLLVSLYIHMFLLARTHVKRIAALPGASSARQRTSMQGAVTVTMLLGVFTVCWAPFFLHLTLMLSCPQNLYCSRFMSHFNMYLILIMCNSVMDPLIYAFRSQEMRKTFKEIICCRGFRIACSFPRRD
T8 sequence (P25103 whole entry): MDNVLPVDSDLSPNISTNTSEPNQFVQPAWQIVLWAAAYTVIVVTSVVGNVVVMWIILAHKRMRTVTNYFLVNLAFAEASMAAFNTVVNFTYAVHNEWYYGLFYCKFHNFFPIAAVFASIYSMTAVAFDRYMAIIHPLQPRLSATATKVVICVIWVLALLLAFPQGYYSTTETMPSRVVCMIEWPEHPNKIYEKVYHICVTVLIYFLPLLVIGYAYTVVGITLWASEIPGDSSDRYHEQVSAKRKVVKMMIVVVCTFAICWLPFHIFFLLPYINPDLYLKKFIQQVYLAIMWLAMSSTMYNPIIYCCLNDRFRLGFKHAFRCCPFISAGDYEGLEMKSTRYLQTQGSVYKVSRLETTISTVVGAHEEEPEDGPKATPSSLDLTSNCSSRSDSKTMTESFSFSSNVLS
T4 sequence (P32245 whole entry): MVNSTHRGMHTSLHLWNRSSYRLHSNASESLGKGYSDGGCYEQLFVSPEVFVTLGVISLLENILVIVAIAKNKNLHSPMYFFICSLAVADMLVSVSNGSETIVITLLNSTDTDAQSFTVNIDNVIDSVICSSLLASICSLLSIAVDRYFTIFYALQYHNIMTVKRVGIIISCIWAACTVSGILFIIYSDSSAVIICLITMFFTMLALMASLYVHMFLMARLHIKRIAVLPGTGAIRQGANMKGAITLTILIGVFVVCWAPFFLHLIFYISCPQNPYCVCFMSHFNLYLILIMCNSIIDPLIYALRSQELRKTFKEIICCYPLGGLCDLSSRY
T1 sequence (P41143 whole entry): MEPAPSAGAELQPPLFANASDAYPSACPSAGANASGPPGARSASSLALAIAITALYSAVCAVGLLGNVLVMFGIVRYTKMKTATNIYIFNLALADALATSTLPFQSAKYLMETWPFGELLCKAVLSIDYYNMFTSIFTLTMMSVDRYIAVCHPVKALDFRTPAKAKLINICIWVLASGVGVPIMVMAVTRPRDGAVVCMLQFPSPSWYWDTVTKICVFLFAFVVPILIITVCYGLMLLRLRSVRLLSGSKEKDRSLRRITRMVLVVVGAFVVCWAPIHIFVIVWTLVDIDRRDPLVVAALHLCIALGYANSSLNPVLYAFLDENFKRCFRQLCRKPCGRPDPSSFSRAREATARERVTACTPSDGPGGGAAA
T10 sequence (P41146 whole entry): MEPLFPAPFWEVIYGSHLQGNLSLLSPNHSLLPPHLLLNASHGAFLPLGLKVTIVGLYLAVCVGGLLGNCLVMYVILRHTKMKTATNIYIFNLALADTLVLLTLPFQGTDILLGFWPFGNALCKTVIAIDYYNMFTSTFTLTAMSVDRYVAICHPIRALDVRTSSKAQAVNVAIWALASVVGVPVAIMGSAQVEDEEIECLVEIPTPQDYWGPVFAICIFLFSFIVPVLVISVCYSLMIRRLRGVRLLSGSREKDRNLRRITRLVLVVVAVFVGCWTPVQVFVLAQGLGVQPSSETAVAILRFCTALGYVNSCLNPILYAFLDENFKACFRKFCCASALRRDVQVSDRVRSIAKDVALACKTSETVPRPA
T2 sequence (P41145 whole entry): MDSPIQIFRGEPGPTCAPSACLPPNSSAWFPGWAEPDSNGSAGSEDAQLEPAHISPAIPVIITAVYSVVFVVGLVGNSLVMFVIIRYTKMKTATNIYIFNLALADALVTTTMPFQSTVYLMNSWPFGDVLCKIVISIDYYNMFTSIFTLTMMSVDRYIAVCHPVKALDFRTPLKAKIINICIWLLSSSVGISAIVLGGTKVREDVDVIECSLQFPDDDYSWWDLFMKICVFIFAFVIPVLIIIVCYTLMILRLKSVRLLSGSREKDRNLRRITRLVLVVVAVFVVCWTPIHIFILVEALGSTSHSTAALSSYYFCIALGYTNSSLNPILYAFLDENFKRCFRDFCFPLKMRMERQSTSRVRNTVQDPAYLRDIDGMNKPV
T7 sequence (P35372 whole entry): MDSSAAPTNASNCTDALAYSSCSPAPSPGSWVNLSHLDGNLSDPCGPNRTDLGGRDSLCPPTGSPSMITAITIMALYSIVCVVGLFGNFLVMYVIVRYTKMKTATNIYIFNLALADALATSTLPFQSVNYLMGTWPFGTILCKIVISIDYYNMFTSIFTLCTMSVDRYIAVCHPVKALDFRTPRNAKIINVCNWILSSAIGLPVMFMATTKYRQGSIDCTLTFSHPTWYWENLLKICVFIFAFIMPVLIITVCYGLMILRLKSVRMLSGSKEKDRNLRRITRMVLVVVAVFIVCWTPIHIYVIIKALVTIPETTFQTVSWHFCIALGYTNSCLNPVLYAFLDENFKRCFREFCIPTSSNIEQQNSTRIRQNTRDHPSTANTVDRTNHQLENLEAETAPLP
T3 sequence (P41968 whole entry): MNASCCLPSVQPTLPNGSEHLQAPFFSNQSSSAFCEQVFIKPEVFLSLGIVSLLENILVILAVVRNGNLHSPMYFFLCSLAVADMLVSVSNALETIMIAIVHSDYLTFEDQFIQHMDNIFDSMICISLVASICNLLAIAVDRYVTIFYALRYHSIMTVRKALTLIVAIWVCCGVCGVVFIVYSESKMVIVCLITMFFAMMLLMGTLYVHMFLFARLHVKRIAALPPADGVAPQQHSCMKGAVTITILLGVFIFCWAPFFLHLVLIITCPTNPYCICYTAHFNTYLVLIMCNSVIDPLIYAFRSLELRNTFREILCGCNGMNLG
T6 sequence (Q99705 whole entry): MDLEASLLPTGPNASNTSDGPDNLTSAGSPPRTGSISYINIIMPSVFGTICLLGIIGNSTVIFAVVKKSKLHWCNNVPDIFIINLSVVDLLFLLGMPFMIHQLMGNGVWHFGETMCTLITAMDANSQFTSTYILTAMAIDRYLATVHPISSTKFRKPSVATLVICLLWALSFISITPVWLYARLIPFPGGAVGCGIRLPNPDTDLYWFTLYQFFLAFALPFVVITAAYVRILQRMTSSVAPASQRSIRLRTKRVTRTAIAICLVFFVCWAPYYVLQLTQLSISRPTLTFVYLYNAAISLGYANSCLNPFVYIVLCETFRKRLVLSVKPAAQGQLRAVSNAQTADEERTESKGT

Compound	A1 radioligand binding, percentage inhibition [1]	A2 radioligand binding, percentage inhibition [2]	A3 radioligand binding, percentage inhibition [3]	A4 radioligand binding, percentage inhibition [4]	A5 radioligand binding, percentage inhibition [5]	A6 radioligand binding, percentage inhibition [6]	A7 radioligand binding, percentage inhibition [7]	A8 radioligand binding, percentage inhibition [8]	A9 radioligand binding, percentage inhibition [9]	A10 radioligand binding, percentage inhibition [10]	A11 radioligand binding, percentage inhibition [11]
COCC1OC(OCc2ccccc2)C(NC(=O)CCN)C(OCc2ccccc2)C1O (stereo not drawn) [compound 172]	− (“−” indicates less than 50% inhibition at 10 μM)	− (“−” indicates less than 50% inhibition at 10 μM)	− (“−” indicates less than 50% inhibition at 10 μM)	− (“−” indicates less than 50% inhibition at 10 μM)	− (“−” indicates less than 50% inhibition at 10 μM)	− (“−” indicates less than 50% inhibition at 10 μM)	− (“−” indicates less than 50% inhibition at 10 μM)	+ (“+” indicates greater than 50% inhibition at 10 μM)	− (“−” indicates less than 50% inhibition at 10 μM)	− (“−” indicates less than 50% inhibition at 10 μM)	− (“−” indicates less than 50% inhibition at 10 μM)
COCC1OC(OCc2ccccc2)C(NC(=O)CCNC(=N)N)C(OCc2ccccc2)C1O (stereo not drawn) [compound 173]	− (“−” indicates less than 50% inhibition at 10 μM)	− (“−” indicates less than 50% inhibition at 10 μM)	− (“−” indicates less than 50% inhibition at 10 μM)	− (“−” indicates less than 50% inhibition at 10 μM)	− (“−” indicates less than 50% inhibition at 10 μM)	− (“−” indicates less than 50% inhibition at 10 μM)	− (“−” indicates less than 50% inhibition at 10 μM)	+ (“+” indicates greater than 50% inhibition at 10 μM)	− (“−” indicates less than 50% inhibition at 10 μM)	− (“−” indicates less than 50% inhibition at 10 μM)	− (“−” indicates less than 50% inhibition at 10 μM)
COCC1OC(OCc2ccccc2)C(NC(=O)CCCN)C(OCc2ccccc2)C1O (stereo not drawn) [compound 174]	− (“−” indicates less than 50% inhibition at 10 μM)	− (“−” indicates less than 50% inhibition at 10 μM)	− (“−” indicates less than 50% inhibition at 10 μM)	− (“−” indicates less than 50% inhibition at 10 μM)	− (“−” indicates less than 50% inhibition at 10 μM)	− (“−” indicates less than 50% inhibition at 10 μM)	− (“−” indicates less than 50% inhibition at 10 μM)	+ (“+” indicates greater than 50% inhibition at 10 μM)	− (“−” indicates less than 50% inhibition at 10 μM)	− (“−” indicates less than 50% inhibition at 10 μM)	− (“−” indicates less than 50% inhibition at 10 μM)
COCC1OC(OCc2ccccc2)C(NC(=O)CCCNC(=N)N)C(OCc2ccccc2)C1O (stereo not drawn) [compound 175]	− (“−” indicates less than 50% inhibition at 10 μM)	− (“−” indicates less than 50% inhibition at 10 μM)	− (“−” indicates less than 50% inhibition at 10 μM)	− (“−” indicates less than 50% inhibition at 10 μM)	− (“−” indicates less than 50% inhibition at 10 μM)	− (“−” indicates less than 50% inhibition at 10 μM)	− (“−” indicates less than 50% inhibition at 10 μM)	+ (“+” indicates greater than 50% inhibition at 10 μM)	− (“−” indicates less than 50% inhibition at 10 μM)	− (“−” indicates less than 50% inhibition at 10 μM)	− (“−” indicates less than 50% inhibition at 10 μM)
COCC1OC(OCc2ccccc2)C(NC(=O)CN)C(OCc2ccc(Cl)cc2)C1O (stereo not drawn) [compound 176]	− (“−” indicates less than 50% inhibition at 10 μM)	− (“−” indicates less than 50% inhibition at 10 μM)	− (“−” indicates less than 50% inhibition at 10 μM)	− (“−” indicates less than 50% inhibition at 10 μM)	− (“−” indicates less than 50% inhibition at 10 μM)	− (“−” indicates less than 50% inhibition at 10 μM)	− (“−” indicates less than 50% inhibition at 10 μM)	+ (“+” indicates greater than 50% inhibition at 10 μM)	− (“−” indicates less than 50% inhibition at 10 μM)	− (“−” indicates less than 50% inhibition at 10 μM)	− (“−” indicates less than 50% inhibition at 10 μM)
COCC1OC(OCc2ccccc2)C(NC(=O)CNC(=N)N)C(OCc2ccc(Cl)cc2)C1O (stereo not drawn) [compound 177]	− (“−” indicates less than 50% inhibition at 10 μM)	− (“−” indicates less than 50% inhibition at 10 μM)	+ (“+” indicates greater than 50% inhibition at 10 μM)	+ (“+” indicates greater than 50% inhibition at 10 μM)	+ (“+” indicates greater than 50% inhibition at 10 μM)	− (“−” indicates less than 50% inhibition at 10 μM)	− (“−” indicates less than 50% inhibition at 10 μM)	+ (“+” indicates greater than 50% inhibition at 10 μM)	− (“−” indicates less than 50% inhibition at 10 μM)	− (“−” indicates less than 50% inhibition at 10 μM)	− (“−” indicates less than 50% inhibition at 10 μM)
